Source: patent publication US4303664A, “Novel penicillin derivatives containing a coumarin nucleus and medicines containing the same” (Teijin Limited, priority 1978, dated 1981)
≈ marks a conversion by molar mass, not a printed value.

Key:
Enterobactor cloacae 147 = experiment: Bactericidal test (MIC), Enterobactor cloacae 147; assay type: cell-based; conditions: (7) Enterobactor cloacae 147
Text: (§1) Results of bactericidal tests (MIC, r/ml) on the penicillin derivatives of this invention prepared in the above examples are shown in the following table.

[1] = tested on: Escherichia Coli NIHJ JC-2; experiment: Bactericidal test (MIC), Escherichia Coli NIHJ JC-2; assay type: cell-based; conditions: NIHJJC2; (5) Escherichia Coli NIHJ JC-2
Text: as §1

[2] = tested on: Staphylococcus aureus 209-p; experiment: Bactericidal test (MIC), Staphylococcus aureus 209-p; assay type: cell-based; conditions: (1) Staphylococcus aureus 209-p
Text: as §1

[3] = tested on: Salmonella typhimurium G-20; experiment: Bactericidal test (MIC), Salmonella typhimurium G-20; assay type: cell-based; conditions: Salmonella enterica; (4) Salmonella typhimurium G-20
Text: as §1

[4] = tested on: Pseudomonas aeruginosa 0-37; experiment: Bactericidal test (MIC), Pseudomonas aeruginosa 0-37; assay type: cell-based; conditions: 037; (13) Pseudomonas aeruginosa 0-37
Text: as §1

Morganella var. G-2 = experiment: Bactericidal test (MIC), Morganella var. G-2; assay type: cell-based; conditions: VAR.G2; (9) Morganella var. G-2; read-out: MIC
Text: as §1

[5] = tested on: Pseudomonas aeruginosa Tid-53; experiment: Bactericidal test (MIC), Pseudomonas aeruginosa Tid-53; assay type: cell-based; conditions: TID53; (14) Pseudomonas aeruginosa Tid-53
Text: as §1

[6] = Acute toxicity values [(LD50), mouse]; conditions: in vivo
Text: Acute toxicity values [(LD50), mouse] of some penicillin derivatives of this invention are illustrated in the following table.

[7] = tested on: Pseudomonas aeruginosa GN-315; experiment: Bactericidal test (MIC), Pseudomonas aeruginosa GN-315; assay type: cell-based; conditions: GN315; (15) Pseudomonas aeruginosa GN-315
Text: as §1

[8] = Rates of protein fixation (human serum protein); assay type: in vitro ADME; conditions: read-out: Rate of protein fixation (converted)
Text: Rates of protein fixation (human serum protein) of the penicillin derivatives of this invention are illustrated as follows: […]

[9] = tested on: Pseudomonas aeruginosa 130; experiment: Bactericidal test (MIC), Pseudomonas aeruginosa 130; assay type: cell-based; conditions: (16) Pseudomonas aeruginosa 130
Text: as §1

[10] = tested on: Enterobacter cloacae IF012937; experiment: Bactericidal test (MIC), Enterobacter cloacae IF012937; assay type: cell-based; conditions: (8) Enterobacter cloacae IF012937
Text: as §1

Bacillus subtilis = experiment: Bactericidal test (MIC), Bacillus subtilis; assay type: cell-based; conditions: (3) Bacillus subtilis
Text: as §1

[11] = tested on: Klebsiella neumoniae ATCC10031; experiment: Bactericidal test (MIC), Klebsiella neumoniae ATCC10031; assay type: cell-based; conditions: (6) Klebsiella neumoniae ATCC10031; read-out: MIC
Text: as §1

[12] = tested on: Staphylococcus aureus 1248; experiment: Bactericidal test (MIC), Staphylococcus aureus 1248; assay type: cell-based; conditions: (2) Staphylococcus aureus 1248; read-out: MIC
Text: as §1

[13] = tested on: Pseudomonas aeruginosa IFO-3080; experiment: Bactericidal test (MIC), Pseudomonas aeruginosa IFO-3080; assay type: cell-based; conditions: IFO3080; (12) Pseudomonas aeruginosa IFO-3080; read-out: MIC
Text: as §1

Serratia G-18 = experiment: Bactericidal test (MIC), Serratia G-18; assay type: cell-based; conditions: G18; (11) Serratia G-18; read-out: MIC
Text: as §1

Rettgerella var. Tid-21 = experiment: Bactericidal test (MIC), Rettgerella var. Tid-21; assay type: cell-based; conditions: (10) Rettgerella var. Tid-21; read-out: MIC
Text: as §1

## COc1cccc2cc(C(=O)N[C@@H](C(=O)N[C@@H]3C(=O)N4[C@@H]3SC(C)(C)[C@@H]4C(=O)O)c3ccccc3)c(=O)oc12 [Example 6, D(-)-α-(8-Methoxycoumarin-3-carbonamido)benzylpenicillin]
Enterobactor cloacae 147
  MIC: 3.13 µg/mL (≈ 5.67 µM)
[1]
  MIC: < 0.4 µg/mL
[2]
  MIC: < 0.4 µg/mL
[3]
  MIC: < 0.4 µg/mL
[4]
  MIC: 12.5 µg/mL (≈ 22.7 µM)
Morganella var. G-2
  MIC: 0.8 µg/mL (≈ 1.45 µM)
[5]
  MIC: 6.25 µg/mL (≈ 11.3 µM)
[6]; Oral
  LD50: > 4000 mg/kg
[6]; ip, Intraabdominal
  LD50: 2000 mg/kg
[7]
  MIC: 3.13 µg/mL (≈ 5.67 µM)
[8]
  fraction unbound: 0.42
[9]
  MIC: 1.56 µg/mL (≈ 2.83 µM)
[10]
  MIC: 6.25 µg/mL (≈ 11.3 µM)
Bacillus subtilis
  MIC: < 0.4 µg/mL
[11]
  MIC: 0.8 µg/mL (≈ 1.45 µM)
[12]
  MIC: 0.8 µg/mL (≈ 1.45 µM)
[13]
  MIC: 0.8 µg/mL (≈ 1.45 µM)
Serratia G-18
  MIC: 6.25 µg/mL (≈ 11.3 µM)
Rettgerella var. Tid-21
  MIC: 3.13 µg/mL (≈ 5.67 µM)
